Data taken from ChEMBL document CHEMBL5390204, “Persephacin Is a Broad-Spectrum Antifungal Aureobasidin Metabolite That Overcomes Intrinsic Resistance in Aspergillus fumigatus” (J Nat Prod, 2023).
In brackets after ≈: the same amount, converted by molar mass.

Key:
Pichia kudriavzevii [1] = assay: Antifungal activity against Candida krusei ATCC 6258 (Y-7179) assessed as reduction in fungal viability incubated for 48 hrs by microplate reader analysis; format: functional
Candida albicans [2] = assay: Antifungal activity against Candida albicans SC5314 assessed as reduction in fungal growth incubated for 48 hrs by microplate reader analysis; format: functional
Aspergillus fumigatus [3] = assay: Antifungal activity against Aspergillus fumigatus NRRL5109 assessed as reduction in fungal viability incubated for 48 hrs by microplate reader analysis; format: functional
Aspergillus niger [4] = assay: Antifungal activity against Aspergillus niger FGSC A732 assessed as reduction in fungal growth incubated for 48 hrs by microplate reader analysis; format: functional
Paecilomyces lilacinus [5] = assay: Antifungal activity against Paecilomyces lilacinus 165E10 assessed as reduction in fungal growth incubated for 48 hrs by microplate reader analysis; format: functional; conditions: Purpureocillium lilacinum
Candida albicans [6] = assay: Antifungal activity against Candida albicans SC5314 assessed as reduction in fungal viability incubated for 48 hrs by microplate reader analysis; format: functional
Curvularia lunata [7] = assay: Antifungal activity against Curvularia lunata NRRL6409 assessed as reduction in fungal viability incubated for 48 hrs by microplate reader analysis; format: functional
Cryptococcus neoformans [8] = assay: Antifungal activity against Cryptococcus neoformans H99 assessed as reduction in fungal viability incubated for 48 hrs by microplate reader analysis; format: functional
Candida parapsilosis [9] = assay: Antifungal activity against Candida parapsilosis ATCC 22019 (Y-12969) assessed as reduction in fungal viability incubated for 48 hrs by microplate reader analysis; format: functional
Aspergillus niger [10] = assay: Antifungal activity against Aspergillus niger FGSC A732 assessed as reduction in fungal viability incubated for 48 hrs by microplate reader analysis; format: functional
Mucor circinelloides [11] = assay: Antifungal activity against Mucor circinelloides 235C7 assessed as reduction in fungal growth incubated for 48 hrs by microplate reader analysis; format: functional
Cryptococcus neoformans [12] = assay: Antifungal activity against Cryptococcus neoformans H99 assessed as reduction in fungal growth incubated for 48 hrs by microplate reader analysis; format: functional
Candida parapsilosis [13] = assay: Antifungal activity against Candida parapsilosis ATCC 22019 (Y-12969) assessed as reduction in fungal growth incubated for 48 hrs by microplate reader analysis; format: functional; conditions: Lodderomyces parapsilosis
Pichia kudriavzevii [14] = assay: Antifungal activity against Candida krusei ATCC 6258 (Y-7179) assessed as reduction in fungal growth incubated for 48 hrs by microplate reader analysis; format: functional
Candida albicans [15] = assay: Antifungal activity against Candida albicans ATCC 10231 assessed as reduction in fungal viability incubated for 48 hrs by microplate reader analysis; format: functional
Hamigera insecticola [16] = assay: Antifungal activity against Hamigera insecticola NRRL35442 assessed as reduction in fungal growth incubated for 48 hrs by microplate reader analysis; format: functional
Hamigera insecticola [17] = assay: Antifungal activity against Hamigera insecticola NRRL35442 assessed as reduction in fungal viability incubated for 48 hrs by microplate reader analysis; format: functional
Rhizopus arrhizus [18] = assay: Antifungal activity against Rhizopus oryzae FGSC 9543 assessed as reduction in fungal growth incubated for 48 hrs by microplate reader analysis; format: functional
Aspergillus fumigatus [19] = assay: Antifungal activity against Aspergillus fumigatus MYA 3627 assessed as reduction in fungal viability incubated for 48 hrs by microplate reader analysis; format: functional
Candida tropicalis [20] = assay: Antifungal activity against Candida tropicalis ATCC750 (Y-12699) assessed as reduction in fungal viability incubated for 48 hrs by microplate reader analysis; format: functional
Candida albicans [21] = assay: Antifungal activity against Candida albicans ATCC 10231 assessed as reduction in fungal growth incubated for 48 hrs by microplate reader analysis; format: functional
Fusarium solani [22] = assay: Antifungal activity against Fusarium solani 243G2 assessed as reduction in fungal growth incubated for 48 hrs by microplate reader analysis; format: functional
Aspergillus fumigatus [23] = assay: Antifungal activity against Aspergillus fumigatus MYA 3627 assessed as reduction in fungal growth incubated for 48 hrs by microplate reader analysis; format: functional
Rhizopus arrhizus [24] = assay: Antifungal activity against Rhizopus oryzae FGSC 9543 assessed as reduction in fungal viability incubated for 48 hrs by microplate reader analysis; format: functional
Candida tropicalis [25] = assay: Antifungal activity against Candida tropicalis ATCC750 (Y-12699) assessed as reduction in fungal growth incubated for 48 hrs by microplate reader analysis; format: functional
Mucor circinelloides [26] = assay: Antifungal activity against Mucor circinelloides 235C7 assessed as reduction in fungal viability incubated for 48 hrs by microplate reader analysis; format: functional
Aspergillus flavus [27] = assay: Antifungal activity against Aspergillus flavus NRRL485 assessed as reduction in fungal growth incubated for 48 hrs by microplate reader analysis; format: functional
Aspergillus terreus [28] = assay: Antifungal activity against Aspergillus terreus 191A6 assessed as reduction in fungal viability incubated for 48 hrs by microplate reader analysis; format: functional
Paecilomyces lilacinus [29] = assay: Antifungal activity against Paecilomyces lilacinus 165E10 assessed as reduction in fungal viability incubated for 48 hrs by microplate reader analysis; format: functional, Purpureocillium lilacinum
Aspergillus flavus [30] = assay: Antifungal activity against Aspergillus flavus NRRL485 assessed as reduction in fungal viability incubated for 48 hrs by microplate reader analysis; format: functional
Aspergillus fumigatus [31] = assay: Antifungal activity against Aspergillus fumigatus NRRL6113 assessed as reduction in fungal growth incubated for 48 hrs by microplate reader analysis; format: functional
Curvularia lunata [32] = assay: Antifungal activity against Curvularia lunata NRRL6409 assessed as reduction in fungal growth incubated for 48 hrs by microplate reader analysis; format: functional
Aspergillus terreus [33] = assay: Antifungal activity against Aspergillus terreus 191A6 assessed as reduction in fungal growth incubated for 48 hrs by microplate reader analysis; format: functional
Aspergillus fumigatus [34] = assay: Antifungal activity against Aspergillus fumigatus NRRL5109 assessed as reduction in fungal growth incubated for 48 hrs by microplate reader analysis; format: functional
Fusarium solani [35] = assay: Antifungal activity against Fusarium solani 243G2 assessed as reduction in fungal viability incubated for 48 hrs by microplate reader analysis; format: functional
Aspergillus fumigatus [36] = assay: Antifungal activity against Aspergillus fumigatus NRRL6113 assessed as reduction in fungal viability incubated for 48 hrs by microplate reader analysis; format: functional

CCC(C)n1ncn(-c2ccc(N3CCN(c4ccc(OCC5COC(Cn6cncn6)(c6ccc(Cl)cc6Cl)O5)cc4)CC3)cc2)c1=O (centres undefined) [ITRACONAZOLE]
MFC<=99.9 (Pichia kudriavzevii [1]): 2.5 µM (≈ 1.76 µg/mL)
MFC (Candida albicans [2]): > 10 µM
MIC80 (Candida albicans [2]): 0.135 µM (≈ 0.0953 µg/mL)
MFC<=99.9 (Aspergillus fumigatus [3]): 10 µM (≈ 7.06 µg/mL)
MFC (Aspergillus niger [4]): 5 µM (≈ 3.53 µg/mL)
MIC80 (Aspergillus niger [4]): 2.5 µM (≈ 1.76 µg/mL)
MFC (Paecilomyces lilacinus [5]): 1.3 µM (≈ 0.917 µg/mL)
MIC80 (Paecilomyces lilacinus [5]): 2.5 µM (≈ 1.76 µg/mL)
MFC<=99.9 (Candida albicans [6]): >10 µM
MFC<=99.9 (Curvularia lunata [7]): 5 µM (≈ 3.53 µg/mL)
MFC<=99.9 (Cryptococcus neoformans [8]): >10 µM
MFC<=99.9 (Candida parapsilosis [9]): 5 µM (≈ 3.53 µg/mL)
MFC<=99.9 (Aspergillus niger [10]): 5 µM (≈ 3.53 µg/mL)
MFC (Mucor circinelloides [11]): > 10 µM
MIC80 (Mucor circinelloides [11]): 10 µM (≈ 7.06 µg/mL)
MFC (Cryptococcus neoformans [12]): > 10 µM
MIC80 (Cryptococcus neoformans [12]): 0.6 µM (≈ 0.423 µg/mL)
MFC (Candida parapsilosis [13]): 5 µM (≈ 3.53 µg/mL)
MIC80 (Candida parapsilosis [13]): 0.6 µM (≈ 0.423 µg/mL)
MFC (Pichia kudriavzevii [14]): 2.5 µM (≈ 1.76 µg/mL)
MIC80 (Pichia kudriavzevii [14]): 0.6 µM (≈ 0.423 µg/mL)
MFC<=99.9 (Candida albicans [15]): >10 µM
MFC (Hamigera insecticola [16]): 1.35 µM (≈ 0.953 µg/mL)
MIC80 (Hamigera insecticola [16]): 0.3 µM (≈ 0.212 µg/mL)
MFC<=99.9 (Hamigera insecticola [17]): 1.35 µM (≈ 0.953 µg/mL)
MFC (Rhizopus arrhizus [18]): 0.6 µM (≈ 0.423 µg/mL)
MIC80 (Rhizopus arrhizus [18]): 0.6 µM (≈ 0.423 µg/mL)
MFC<=99.9 (Aspergillus fumigatus [19]): >10 µM
MFC<=99.9 (Candida tropicalis [20]): >10 µM
MFC (Candida albicans [21]): > 10 µM
MIC80 (Candida albicans [21]): 0.06 µM (≈ 0.0423 µg/mL)
MFC (Fusarium solani [22]): 5 µM (≈ 3.53 µg/mL)
MIC80 (Fusarium solani [22]): 2.5 µM (≈ 1.76 µg/mL)
MFC (Aspergillus fumigatus [23]): > 10 µM
MIC80 (Aspergillus fumigatus [23]): 5 µM (≈ 3.53 µg/mL)
MFC<=99.9 (Rhizopus arrhizus [24]): 0.6 µM (≈ 0.423 µg/mL)
MFC (Candida tropicalis [25]): > 10 µM
MIC80 (Candida tropicalis [25]): 0.6 µM (≈ 0.423 µg/mL)
MFC<=99.9 (Mucor circinelloides [26]): >10 µM
MFC (Aspergillus flavus [27]): 0.6 µM (≈ 0.423 µg/mL)
MIC80 (Aspergillus flavus [27]): 0.2 µM (≈ 0.141 µg/mL)
MFC<=99.9 (Aspergillus terreus [28]): 2.5 µM (≈ 1.76 µg/mL)
MFC<=99.9 (Paecilomyces lilacinus [29]): 1.3 µM (≈ 0.917 µg/mL)
MFC<=99.9 (Aspergillus flavus [30]): 0.6 µM (≈ 0.423 µg/mL)
MFC (Aspergillus fumigatus [31]): > 10 µM
MIC80 (Aspergillus fumigatus [31]): 1.3 µM (≈ 0.917 µg/mL)
MFC (Curvularia lunata [32]): 5 µM (≈ 3.53 µg/mL)
MIC80 (Curvularia lunata [32]): 2.5 µM (≈ 1.76 µg/mL)
MFC (Aspergillus terreus [33]): 2.5 µM (≈ 1.76 µg/mL)
MIC80 (Aspergillus terreus [33]): 0.6 µM (≈ 0.423 µg/mL)
MFC (Aspergillus fumigatus [34]): 10 µM (≈ 7.06 µg/mL)
MIC80 (Aspergillus fumigatus [34]): 1.3 µM (≈ 0.917 µg/mL)
MFC<=99.9 (Fusarium solani [35]): 5 µM (≈ 3.53 µg/mL)
MFC<=99.9 (Aspergillus fumigatus [36]): >10 µM
